Test results as given in patent US20160333006A1, “ARYL LACTA KINASE INHIBITORS” (Bristol-Myers Squibb Company, priority 2014, published 2016).
pIC50: −log10 of the molar value.

Columns and labels:
mice = assay: formalin paw test; type: in vivo, mouse
Protocol: AAK1 homozygous (−/−) and their wild-type (+/+) littermates were tested using the formalin paw test in order to assess their acute and tonic nociceptive responses. For these tests, Automatic Nociception Analyzers (purchased from the Ozaki lab at University of California, San Diego) were used. A metal band was placed around the left hind paw of each mouse 30 minutes prior to testing. After the 30-minute acclimation period, 20 μl of 5% formalin is subcutaneously injected in the dorsal surface of the left hind paw. Mice were individually housed in cylindrical chambers for 45 minutes. Fresh 5% formalin solution was prepared by diluting formaldehyde (Formalde-fresh 20%, Fisher Scientific, Fair Lawn, N.J.) with distilled water. Investigatory compounds were administered 30 minutes prior to formalin injection.
A computer recorded flinches per minute, total flinches for phase I (acute phase=first 8 minutes), and total flinches for phase II (tonic phase=time between minutes 20-40) through an electromagnetic field. See Yaksh T L, Ozaki G, McCumber D, Rathbun M, Svensson C, Malkmus S, Yaksh M C. An automated flinch detecting system for use in the formalin nociceptive bioassay. J Appl Physiol., 2001; 90:2386-402.
The same test was used to confirm that the administration of an AAK1 inhibitor can also affect pain response.
A compound of the disclosure was tested in this assay at different doses. Gabapentin and pregabalin were used as positive controls. Results are shown below in Table 2, wherein the effect of gabapentin at 200 mg/kg is considered a 100% response, the % response for the other compounds is relative to the 200 mg/kg dose of gabapentin, “sc” means subcutaneous administration; “po” means oral administration.

GST-Xa-hAAK1 = molecular target: T1, GST-Xa-hAAK1 (Homo sapiens, UniProt Q2M2I8); assay: AAK1 kinase assay; type: biochemical; details: ATP 22 μM
T1 construct: made in house
Protocol: The assays were performed in U-bottom 384-well plates. […] The reactions were initiated by the combination of bacterially expressed, GST-Xa-hAAK1 with substrates and test compounds. The reactions were incubated at room temperature for 3 hours and terminated by adding 60 μl of 35 mM EDTA buffer to each sample. The reactions were analyzed on the Caliper LabChip 3000 (Caliper, Hopkinton, Mass.) by electrophoretic separation of the fluorescent substrate and phosphorylated product. […] Compounds were dissolved at 10 mM in dimethylsulfoxide (DMSO) and evaluated at eleven concentrations. IC50 values were derived by non-linear regression analysis.

[1] = molecular target: T2, AAK1 (full length human) in HEK293F cells (Homo sapiens, UniProt Q2M2I8); assay: HEK281 cell-based assay (phospho-mu2 Western blot in transfected HEK293F cells); details: 3 hours
T2 construct: fused on or other part: HA tag (AAK1/HA in pIRES vector)
Protocol: On day one, cells were plated on a 10 cm dish so that they are ˜80% confluent at time oftransfection. Roughly 12 million cells were in a 10 cm dish at time of transfection. […] The DNA was comprised of a mixture (per 10 cm dish) containing 3 ug AAK1/HA/pIRES (full length human, NCBI accession no. NP_055726.2), 45 μg Flag/AP2MI/pcDNA (full length human), and 1.5 ml OPTI-MEM. The Lipofectamine 2000 is made up of a mixture (per 10 cm dish) containing 144 μl Lipofectamine 2000 and 1.5 ml OPTI-MEM. Each mixture was transferred to individual 15 ml tubes and incubated at RT for 5 minutes, and then the two mixes were combined and incubated at RT for 20 minutes. Growth media was then aspirated from each 10 cm plate and replaced with 10 ml of DMEM+10% FBS (no GPS). Finally, 3 ml DNA/Lipofectamine mix was added to each 10 cm dish and mix gently followed by incubate of plate overnight at 37° C. and 5% CO2.
On day three, compounds were diluted in 100% DMSO at 1000× final concentration, followed by 3-fold serial dilutions for a total of 5 concentrations tested. Four compounds were tested per 10 cm dish. One ul of each compound dilution was then pipetted into a deep-well, 96-well plate, followed by addition of 500 μl DMEM+0.5% FBS into each well for a 2× final concentration of each compound. Cells were resuspended in a 10 cm dish by simple pipetting (HEK293 cells come off the plate that easy at this point) and then transferred to a 50 ml conical tube and pelleted by centrifugation at 1000 rpm for 5 min. Cell pellets were then resuspended in 2.75 ml DMEM+0.5% FBS per 10 cm dish and 100 μl of cell suspension transferred into each well of 96-well TC plate. Finally, 100 μl of 2× compound diluted in DMEM+0.5% FBS was then added into wells containing cell suspension for a 1× final concentration. Plates were then incubated at 37° C. and 5% CO2 for 3 hours followed by transferring of cell suspensions from each well into 12-tube PCR strips. The PCR strips were spun in a tip rack at 1000 rpm for 5 minutes to pellet cells and media was then removed by pipetting without disturbing the cell pellet.
Five ul of 10× NuPage Sample Reducing Agent (with 50 mM DTT) was to each sample followed by heat denaturing at 70 C for 10 min on PCR machine. […] For controls, 2 ng of phospho-mu2 or 20 ng mu2/Flag proteins were loaded in the last well of each gel. After SDS-PAGE, samples on each gel were transferred to PVDF membrane using an iBlot and membranes were blocked for one hour in TBST+5% milk, followed by wash 3× for 5-10 min with TBST.
Finally, the camera was set up to take a picture every 30 seconds for 10 minutes and the best image saved for each blot with no saturated signal (when the signal is saturated, the bands will be highlighted red). A volume analysis on each band was performed to obtain density values. Percent inhibition was calculated for each sample by first normalizing to total Mu2 expression levels and then comparing to 0% and 100% controls. IC50 values were then calculated using Excel fitting software.

[2] = phospho-mu2, given as IC50 range
[3] = phospho-mu2 normalized to total Mu2
[4] = 50 mg/kg sc, relative to gabapentin 200 mg/kg = 100% response

T1 sequence (Q2M2I8 whole entry): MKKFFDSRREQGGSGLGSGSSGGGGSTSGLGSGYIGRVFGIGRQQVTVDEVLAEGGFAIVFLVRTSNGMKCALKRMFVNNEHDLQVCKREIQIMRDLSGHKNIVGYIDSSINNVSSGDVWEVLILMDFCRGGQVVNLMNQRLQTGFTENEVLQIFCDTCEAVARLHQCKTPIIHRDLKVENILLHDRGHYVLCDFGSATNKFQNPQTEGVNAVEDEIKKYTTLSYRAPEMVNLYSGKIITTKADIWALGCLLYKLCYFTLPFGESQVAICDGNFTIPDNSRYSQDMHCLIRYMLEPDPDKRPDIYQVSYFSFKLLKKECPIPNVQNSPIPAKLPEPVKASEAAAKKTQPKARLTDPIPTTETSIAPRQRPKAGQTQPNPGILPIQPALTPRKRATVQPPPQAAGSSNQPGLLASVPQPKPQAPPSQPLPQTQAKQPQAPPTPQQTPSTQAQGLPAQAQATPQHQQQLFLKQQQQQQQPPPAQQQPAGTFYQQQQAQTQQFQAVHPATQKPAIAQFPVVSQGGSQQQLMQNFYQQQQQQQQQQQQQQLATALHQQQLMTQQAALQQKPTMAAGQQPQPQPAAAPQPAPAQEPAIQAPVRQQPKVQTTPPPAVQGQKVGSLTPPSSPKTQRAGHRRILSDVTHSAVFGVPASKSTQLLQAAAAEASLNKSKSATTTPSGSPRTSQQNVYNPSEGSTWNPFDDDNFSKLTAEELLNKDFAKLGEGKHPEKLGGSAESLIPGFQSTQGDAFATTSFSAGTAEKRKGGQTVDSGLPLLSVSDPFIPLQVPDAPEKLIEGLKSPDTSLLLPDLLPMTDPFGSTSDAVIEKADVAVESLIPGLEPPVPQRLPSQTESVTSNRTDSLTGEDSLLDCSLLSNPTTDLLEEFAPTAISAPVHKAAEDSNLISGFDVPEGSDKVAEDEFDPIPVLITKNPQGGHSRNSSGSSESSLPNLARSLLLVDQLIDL
T2 sequence (Q2M2I8 1-822 limits assumed): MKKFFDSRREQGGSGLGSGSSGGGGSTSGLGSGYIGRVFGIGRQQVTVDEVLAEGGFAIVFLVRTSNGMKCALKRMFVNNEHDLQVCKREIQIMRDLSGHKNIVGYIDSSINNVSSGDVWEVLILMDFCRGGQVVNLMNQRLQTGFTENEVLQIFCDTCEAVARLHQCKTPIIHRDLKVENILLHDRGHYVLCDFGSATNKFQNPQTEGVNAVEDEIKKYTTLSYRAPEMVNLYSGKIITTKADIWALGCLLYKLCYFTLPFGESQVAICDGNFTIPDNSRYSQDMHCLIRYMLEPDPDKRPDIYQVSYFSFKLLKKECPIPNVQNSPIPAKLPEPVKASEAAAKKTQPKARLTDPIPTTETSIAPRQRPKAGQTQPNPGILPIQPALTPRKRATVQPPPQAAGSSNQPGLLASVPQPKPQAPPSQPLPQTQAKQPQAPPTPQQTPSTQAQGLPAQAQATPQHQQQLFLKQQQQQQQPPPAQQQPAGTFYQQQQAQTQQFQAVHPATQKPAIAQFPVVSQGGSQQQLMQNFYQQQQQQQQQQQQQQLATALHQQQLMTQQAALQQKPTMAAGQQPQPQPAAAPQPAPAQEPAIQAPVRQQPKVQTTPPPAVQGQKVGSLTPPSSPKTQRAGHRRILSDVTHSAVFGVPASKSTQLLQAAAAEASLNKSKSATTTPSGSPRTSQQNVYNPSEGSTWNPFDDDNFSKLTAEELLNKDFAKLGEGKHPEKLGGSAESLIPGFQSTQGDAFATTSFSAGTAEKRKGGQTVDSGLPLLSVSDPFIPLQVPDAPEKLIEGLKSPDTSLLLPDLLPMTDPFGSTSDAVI

Row | SMILES | pIC50 (GST-Xa-hAAK1; given as IC50 range) | pIC50 [1, 2] | further results
1 | CC(C)C[C@H](N)COc1cc2c(cc1F)c1ccncc1c(=O)n2C [Example 14, (S)-8-((2-amino-4-methylpentyl)oxy)-9-fluoro-6-methylbenzo[c][2,7]naphthyridin-5(6H)-one] | – | – | Response (mice; 30 mg/kg po, relative to gabapentin 200 mg/kg = 100% response): 62%
2 | Cn1c(=O)c2cnccc2c2cc(Cl)c(OCC(N)CCC(F)(F)F)cc21 (stereo not shown) [Example 115, 8-((2-amino-5,5,5-trifluoropentyl)oxy)-9-chloro-6-methylbenzo[c][2,7]naphthyridin-5(6H)-one] | 8.00 to 9.00 | 8.00 to 9.00 | –
3 | Cn1c(=O)c2cnccc2c2cc(Cl)c(OCC(N)CCC(F)(F)F)cc21 (stereo not shown) [Example 116, 8-((2-amino-5,5,5-trifluoropentyl)oxy)-9-chloro-6-methylbenzo[c][2,7]naphthyridin-5(6H)-one] | 7.00 to 8.00 | 7.00 to 8.00 | –
4 | Cn1c(=O)c2cnccc2c2cc(Cl)c(OCC(N)CCC(F)(F)F)cc21 (stereo not shown) [Example 117, 8-((2-amino-5,5,5-trifluoropentyl)oxy)-9-chloro-6-methylbenzo[c][2,7]naphthyridin-5(6H)-one] | 8.00 to 9.00 | 8.00 to 9.00 | –
5 | Cn1c(=O)c2c(N)nccc2c2ccc(OCC(N)CCC(F)(F)F)cc21 (stereo not shown) [Example 118, 4-amino-8-((2-amino-5,5,5-trifluoropentyl)oxy)-6-methylbenzo[c][2,7]naphthyridin-5(6H)-one] | 8.00 to 9.00 | 7.00 to 8.00 | –
6 | CC(C)C[C@H](N)COc1cc2c(cc1C(F)F)c1ccncc1c(=O)n2C [Example 121, (S)-8-((2-amino-4-methylpentyl)oxy)-9-(difluoromethyl)-6-methylbenzo[c][2,7]naphthyridin-5(6H)-one] | 8.00 to 9.00 | 8.00 to 9.00 | –
7 | Cc1nccc2c1c(=O)n(C)c1cc(OC[C@@H](N)CC(C)C)c(Br)cc21 [Example 122, (S)-8-((2-amino-4-methylpentyl)oxy)-9-bromo-4,6-dimethylbenzo[c][2,7]naphthyridin-5(6H)-one] | 8.00 to 9.00 | 8.00 to 9.00 | –
8 | Cn1c(=O)c2cnccc2c2cc(C#N)c(OCC(N)CCC(F)(F)F)cc21 (stereo not shown) [Example 126, 8-((2-amino-5,5,5-trifluoropentyl)oxy)-6-methyl-5-oxo-5,6-dihydrobenzo[c][2,7]naphthyridine-9-carbonitrile] | – | – | pIC50 (GST-Xa-hAAK1; 3 hours at room temperature): 7.80; pIC50 [1, 3]: 7.25
9 | Cc1nccc2c1c(=O)n(C)c1cc(OC[C@@H](N)CC(C)C)c(C(C)C)cc21 [Example 129, (S)-8-((2-amino-4-methylpentyl)oxy)-9-isopropyl-4,6-dimethylbenzo[c][2,7]naphthyridin-5(6H)-one] | 8.00 to 9.00 | 8.00 to 9.00 | –
10 | Cc1nccc2c1c(=O)n(C)c1cc(OC[C@H](N)CC(C)C)c(Br)cc21 [Example 133, (R)-8-((2-amino-4-methylpentyl)oxy)-9-bromo-4,6-dimethylbenzo[c][2,7]naphthyridin-5(6H)-one] | – | – | pIC50 (GST-Xa-hAAK1; 3 hours at room temperature): 9.40; pIC50 [1, 3]: 8.64
11 | Cn1c(=O)c2cnccc2c2cc(Br)c(OCC(N)CC(F)(F)F)cc21 (stereo not shown) [Example 140, 8-(2-amino-4,4,4-trifluorobutoxy)-9-bromo-6-methylbenzo[c][2,7]naphthyridin-5(6H)-one] | 8.00 to 9.00 | 7.00 to 8.00 | –
12 | Cn1c(=O)c2cnccc2c2cc(Cl)c(OCC(N)CC(F)(F)F)cc21 (stereo not shown) [Example 141, 8-(2-amino-4,4,4-trifluorobutoxy)-9-chloro-6-methylbenzo[c][2,7]naphthyridin-5(6H)-one] | 8.00 to 9.00 | 7.00 to 8.00 | –
13 | CC(C)C[C@H](N)COc1cc2[nH]c(=O)c3cnccc3c2cc1Cl [Example 142, (S)-8-((2-amino-4-methylpentyl)oxy)-9-chlorobenzo[c][2,7]naphthyridin-5(6H)-one] | > 9.00 | 8.00 to 9.00 | –
14 | Cc1nccc2c1c(=O)n(CCO)c1cc(OC[C@@H](N)CC(C)C)c(Br)cc21 [Example 143, (S)-8-((2-amino-4-methylpentyl)oxy)-9-bromo-6-(2-hydroxyethyl)-4-methylbenzo[c][2,7]naphthyridin-5(6H)-one] | 8.00 to 9.00 | 8.00 to 9.00 | –
15 | CNC(=O)Nc1nccc2c1c(=O)n(C)c1cc(OC[C@@H](N)CC(C)C)c(F)cc21 [Example 145, (S)-1-(8-((2-amino-4-methylpentyl)oxy)-9-fluoro-6-methyl-5-oxo-5,6-dihydrobenzo[c][2,7]naphthyridin-4-yl)-3-methylurea] | 7.00 to 8.00 | 7.00 to 8.00 | –
16 | CC(C)NCC(O)COc1cc2c(cc1Br)c1ccncc1c(=O)n2C (stereo not shown) [Example 148, 9-bromo-8-(2-hydroxy-3-(isopropylamino)propoxy)-6-methylbenzo[c][2,7]naphthyridin-5(6H)-one] | 5.70 to 7.00 | 5.70 to 7.00 | –
17 | NCC1(CC(=O)O)CCCCC1 [Gabapentin] | – | – | Response (mice; [4]): 60%; Response (mice; 200 mg/kg sc, considered a 100% response): 100%
18 | CC(C)C[C@H](CN)CC(=O)O [Pregabalin, pregabalin] | – | – | Response (mice; [4]): 90%
